According to US20090054403A1, “Treatment of Post-Traumatic Stress Disorder” (priority 2007, published 2009):

Experiments:
[1] = test system: acoustic startle reactivity; experiment: Acoustic startle reactivity after acute dosing; format: in vivo, Sprague Dawley rats; conditions: nepicastat 3-100 mg/kg, SKF-102698 100 mg/kg, clonidine 40 μg/kg
Procedure: A piezoelectric accelerometer transforms the subject's movement into an arbitrary voltage on a scale of 0 to 4095. Prior to drug administration, each of seventy-two rats was placed in the startle apparatus, and after a 5 minute adaption period they were presented with an acoustic noise burst every 20 seconds for 15 minutes (45 startles total). The average startle was calculated for each rat by taking the mean of startle number 11 through 45 (the first ten startles will be disregarded). Sixty-four of these rats were then placed in one of eight treatment groups such that each group had similar mean startle values. The eight treatment groups were as follows: […] Each day after this testing procedure, eight rats (one rat from each of the eight treatment groups) was injected with their assigned drug treatment and immediately placed individually in a motor activity box. The rats motor activity was monitored for four hours. Next, the rats were placed in a transfer cage for fifteen minutes. […] To evaluate startle reactivity, for the 200 milliseconds immediately succeeding each startle the average force exerted by each startled rat over the entire 200 milliseconds, and the maximum force, were measured. […] The startle responses were analyzed using analysis of covariance. […] Therefore, the startle responses were analyzed by time. […]

[2] = test system: pre-pulse inhibition; experiment: Pre-pulse inhibition of acoustic startle on day ten of chronic dosing
Procedure: (§1) The effects of chronic dosing of nepicastat were examined. Between three and thirteen days prior to the first dosing day the rats were placed inside the startle apparatus and after a five minute acclimation period they were presented with a 118 dB noise burst on average once a minute (a variable inter-trial interval ranging between 30 and 90 seconds will be used) for 20 minutes. The startle responses were measured and a mean for the last twenty startle response was calculated for each rat.
(§2) Acoustic startle reactivity (a series of muscle contractions elicited by an intense burst of noise with a rapid onset), and pre-pulse inhibition (sensorimotor gating measured by analyzing any decrease in startle reactivity which occurs when a startling stimulus is immediately preceded by a non startling stimulus) were both measured in eight SR-Lab (San Diego Instruments, San Diego, Calif.) test stations. The rats were placed individually in a Plexiglas cylinder (10 cm diameter) which was housed in a ventilated sound-attenuating enclosure. Acoustic noise bursts (a broad band noise with a rise time and fall time of 1 msec) were presented via a speaker mounted 30 cm above the animal. Also, these speakers produced a 68 dB level of background noise throughout all test sessions. […] A decibel meter was used to calibrate the speakers in each of the eight test station to ±1% of the mean. Additionally, a SR-Lab calibrating instrument was used to calibrate each of the eight startle detection apparatuses to ±2% of the mean. Startle reactivity and pre-pulse inhibition tests were run concurrently immediately alter the motor activity test (about 4 hours and 40 minutes after the morning daily injection of nepicastat, and SKF-102698, and 10 minutes after a supplemental administration of clonidine and d-amphetamine on dosing day ten).

[3] = test system: acoustic startle reactivity; experiment: Acoustic startle reactivity on day ten of chronic dosing; conditions: rat, in vivo, po
Procedure: as §1, §2

[4] = test system: locomotor activity; experiment: Locomotor activity after acute dosing; format: in vivo, Sprague Dawley rats; conditions: 4 h; nepicastat 3-100 mg/kg, SKF-102698 100 mg/kg, clonidine 40 μg/kg
Text: Changes in these behaviors may therefore reflect activity of these compounds in the central nervous system. […] Rats were housed under a normal light/dark cycle with lights on between 0900 Hrs. and 2100 Hrs. Animals were housed in pairs in standard metal wire cages, and food and water were allowed ad libitum. The locomotor activity boxes consisted of a Plexiglas® box measuring 18″×18″ by 12″ high. Surrounding the Plexiglas® boxes were Omnitech Digiscan Monitors (model # RXXCM 16) which consisted of a one inch ban of photobeams and photosensors numbering 32 per box. The number of photobeam breaks were analyzed by an Omnitech Digiscan Analyzer (model # DCM-8). […] Prior to drug administration, each of seventy-two rats was placed in the startle apparatus, and after a 5 minute adaption period they were presented with an acoustic noise burst every 20 seconds for 15 minutes (45 startles total). The average startle was calculated for each rat by taking the mean of startle number 11 through 45 (the first ten startles will be disregarded). Sixty-four of these rats were then placed in one of eight treatment groups such that each group had similar mean startle values. The eight treatment groups were as follows: […] Each day after this testing procedure, eight rats (one rat from each of the eight treatment groups) was injected with their assigned drug treatment and immediately placed individually in a motor activity box. The rats motor activity was monitored for four hours. Next, the rats were placed in a transfer cage for fifteen minutes. At the beginning of this fifteen minutes the rat that has been assigned the clonidine treatment will receive another injection of 40 μg/kg. […] To evaluate motor activity, horizontal activity (number of photobeams broken), number of movements, and rest time were measured. Each parameter was analyzed separately. At each time interval (or called sample), a two-way analysis of variance (ANOVA) was performed using the ranked data (nonparametric technique) to test for the treatment effect blocked by day.

[5] = Change of body weight during 10 day chronic dosing; conditions: 10 days b.i.d. oral dosing
Procedure: as §1
The change from pre-dose in body weights was calculated for each animal for the analysis. A repeated measures two-way ANOVA was used to test for the overall effects of treatment, time and treatment by time interaction. One-way ANOVAS were then performed to test the treatment effect at each day.

[6] = test system: body core temperature; experiment: Body core temperature during 10 day chronic dosing; conditions: b.i.d. oral: nepicastat 5, 15, 50 mg/kg; SKF-102698 50 mg/kg; clonidine 20 ug/kg; d-amphetamine 2 mg/kg; days 1, 5, 10
Procedure: as §1
Rat body core temperatures were obtained by inserting the rectal probe 2 cm into the colon of each rat. Each rat's body core temperature was measured three times and the average of the three reading was calculated. Body core temperature readings were obtained immediately prior to the ten day chronic dosing schedule (to obtain a baseline), and three and half hour after the morning daily dose of nepicastat, and SKF-102698, and 15 minutes prior to the daily administration of clonidine and d-amphetamine, on dosing days one, five and ten. […] Both clonidine (an alpha2 agonist), and d-amphetamine (a dopamine releaser) were used as the positive controls for this assay.
An overall one-way ANOVA with a main effect for treatment was performed at each time on the change from baseline for each animal. Subsequent t-tests were performed for each comparison of interest.

[7] = test system: spontaneous motor activity; experiment: Spontaneous motor activity on day ten of chronic dosing; conditions: day ten of b.i.d. oral dosing, 1 hour
Procedure: as §1
The animals were tested in an enclosed room with a white noise generator running. Motor activity tests were conducted immediately after the body core temperature reading taken on dosing day ten (about 3 hours and 35 minutes after the morning daily dose of nepicastat, and SKF-102698, and 20 minutes prior to the daily administration of clonidine and d-amphetamine on dosing day ten). Motor activity tests were run for one hour. A diagnostic program was run on each of the motor activity chambers prior to each test session to assure that the photo beams and light sensors were operating properly. […] D-amphetamine was used as the positive control for this assay.
Each rats spontaneous locomotion was obtained by calculating the total number of photobeams that the subject broke during the testing session.
Spontaneous motor activity was measured for each animal every 15 min for 1 hour. Each time block (every 15 min) was analyzed separately. Kruskal-Wallis test (nonparametric technique) was performed to test for the difference between treatment groups. If the overall significant difference […], Bonferroni's adjustment for multiple comparisons is then made.

Row | Structure (SMILES) | maximum and average startle response vs vehicle [1] | percent prepulse inhibition vs vehicle ([2]; rat, in vivo, po) | acoustic startle reactivity vs vehicle [3] | horizontal activity vs vehicle [4] | number of movements vs vehicle [4] | rest time vs vehicle [4] | change in body weight from pre-dose vs vehicle [5] | body core temperature [6] | percent prepulse inhibition vs vehicle ([2]; day ten of b.i.d. oral dosing) | spontaneous motor (locomotor) activity vs vehicle [7]
1 | Clc1cccc(Cl)c1N=C1NCCN1 [clonidine] | statistically significantly lower | just significantly higher percent prepulse inhibition | significantly reduced | significantly more horizontal activities at 2 and 2.5 hours | significantly more movements at 2 hours | significantly less rest time at 2 hours | – | – | – | –
2 | C[C@H](N)Cc1ccccc1 [d-amphetamine] | – | – | – | – | – | – | significantly smaller change in body weight | significantly increasing body core temperature on day one | Neither d-amphetamine nor SKF 102698 was significantly different | significantly higher locomotor activity
